These results are taken from patent US10004701B2, “Methods and compositions for treating infection” (UNIVERSITY OF ROCHESTER, priority 2012, dated 2018).

Structures can show the parent of a compound that is named as a salt. Where two headings read alike, the source gives them in different places.

What all share (assay): AK assay 384-well format, Prestwick library screening
Assay [1] concerns E. faecium. It counts as cell-based, Enterococcus faecium. The settings on record: 50 μM final drug concentration; for fold induction at 50 µM: Enterococcus faecium, 3 h.
In assay [2] the test system is S. aureus strain USA300-0114. It counts as cell-based, Staphylococcus aureus. The settings on record: 50 μM final drug concentration; for fold induction at 50 µM: Staphylococcus aureus, USA300, 3 h.
The test system of assay [3] is K. pneumoniae. It counts as cell-based, Klebsiella pneumoniae. The settings on record: 50 μM final drug concentration; for fold induction at 50 µM: Klebsiella pneumoniae, 3 h.
Assay [4] concerns A. baumannii strain 98-37-09. It counts as cell-based, Acinetobacter baumannii. To be noted: 50 μM final drug concentration; for fold induction at 50 µM: Acinetobacter baumannii, 983709, 3 h.
In assay [5] the test system is P. aeruginosa. It counts as cell-based, Pseudomonas aeruginosa. The settings on record: 50 μM final drug concentration; for fold induction at 50 µM: Pseudomonas aeruginosa, 3 h.
Assay [6] deals with E. cloacae. It counts as cell-based, Enterobacter cloacae. To be noted: 50 μM final drug concentration; for fold induction at 50 µM: Enterobacter cloacae, 3 h.
The subject of assay [7] is E. coli. It counts as cell-based, Escherichia coli. To be noted: 50 μM final drug concentration; for fold induction at 50 µM: Escherichia coli, 3 h.
[8] abbreviates: planktonic E. faecium, 384-well, cutoff for positive-scoring molecules 3-fold increase, read-out: AK-based Prestwick Library Screening Results: E. faecium (increase in extracellular AK activity).
The mark [9] stands for this setting: planktonic S. aureus, 384-well, cutoff for positive-scoring molecules 3-fold increase, read-out: AK-based Prestwick Library Screening Results: S. aureus (increase in extracellular AK activity).
Where [10] appears, read: planktonic K. pneumoniae, 384-well, cutoff for positive-scoring molecules 3-fold increase, read-out: AK-based Prestwick Library Screening Results: K. pneumoniae (increase in extracellular AK activity).
The mark [11] stands for this setting: planktonic A. baumannii, 384-well, cutoff for positive-scoring molecules 3-fold increase, read-out: AK-based Prestwick Library Screening Results: A. baumannii (increase in extracellular AK activity).
Setting [12] is: planktonic P. aeruginosa, 384-well, cutoff for positive-scoring molecules 3-fold increase, read-out: AK-based Prestwick Library Screening Results: P. aeruginosa (increase in extracellular AK activity).
[13] abbreviates: planktonic E. cloacae, 384-well, cutoff for positive-scoring molecules 3-fold increase, read-out: AK-based Prestwick Library Screening Results: E. cloacae (increase in extracellular AK activity).
Where [14] appears, read: planktonic E. coli, 384-well, cutoff for positive-scoring molecules 3-fold increase, read-out: AK-based Prestwick Library Screening Results: E. coli (increase in extracellular AK activity).

For the compound `COc1cc2cc3c4cc(OC)c(OC)cc4cc[n+]3c(C)c2cc1OC.O.[Cl-]` [Coralyne chloride hydrate], the “AK-based Prestwick Library Screening Results, E. faecium (increase in extracellular AK activity)” value in assay [1] (planktonic E. faecium, cutoff for positive-scoring molecules 3-fold increase) came to 0.9. In addition, in assay [2] (planktonic S. aureus, cutoff for positive-scoring molecules 3-fold increase), the “AK-based Prestwick Library Screening Results, S. aureus (increase in extracellular AK activity)” value came to 0.4. In addition, the “AK-based Prestwick Library Screening Results, K. pneumoniae (increase in extracellular AK activity)” value in assay [3] (planktonic K. pneumoniae, cutoff for positive-scoring molecules 3-fold increase) is 0.6. Further, the “AK-based Prestwick Library Screening Results, A. baumannii (increase in extracellular AK activity)” value in assay [4] (planktonic A. baumannii, cutoff for positive-scoring molecules 3-fold increase) is reported as 0.8. Moreover, in assay [5] (planktonic P. aeruginosa, cutoff for positive-scoring molecules 3-fold increase), the “AK-based Prestwick Library Screening Results, P. aeruginosa (increase in extracellular AK activity)” value came to 0.8. In addition, the “AK-based Prestwick Library Screening Results, E. cloacae (increase in extracellular AK activity)” value in assay [6] (planktonic E. cloacae, cutoff for positive-scoring molecules 3-fold increase) is 1.1. Further, in assay [7] (planktonic E. coli, […]), the “AK-based Prestwick Library Screening Results, E. coli (increase in extracellular AK activity)” value is 0.9.

As to `CN1CCN(CCCN2c3ccccc3Sc3ccc(C(F)(F)F)cc32)CC1` [Trifluoperazine dihydrochloride], the fold induction at 50 µM in assay [1] (setting [8]) amounted to 1.1; in assay [2] (setting [9]), 1.2; in assay [3] (setting [10]), 1.5; in assay [4] (setting [11]), 3.4; in assay [5] (setting [12]), 1.4; in assay [6] (setting [13]), 1.3. Besides, the fold induction at 50 µM in assay [7] (setting [14]) is 1.7.

Turning to `Oc1c(I)cc(Cl)c2cccnc12` [Clioquinol], the fold induction at 50 µM is 0.9 in assay [1] (planktonic, cutoff for positive-scoring molecules 3-fold increase, read-out: AK-based Prestwick Library Screening Results, E. faecium (fold increase in extracellular AK activity)); 0.2 in assay [2] (planktonic, cutoff for positive-scoring molecules 3-fold increase, read-out: AK-based Prestwick Library Screening Results, S. aureus (fold increase in extracellular AK activity)); 0.6 in assay [3] (planktonic, cutoff for positive-scoring molecules 3-fold increase, read-out: AK-based Prestwick Library Screening Results, K. pneumoniae (fold increase in extracellular AK activity)); 1.1 in assay [4] (planktonic, cutoff for positive-scoring molecules 3-fold increase, read-out: AK-based Prestwick Library Screening Results, A. baumannii (fold increase in extracellular AK activity)); 0.4 in assay [5] (planktonic, cutoff for positive-scoring molecules 3-fold increase, read-out: AK-based Prestwick Library Screening Results, P. aeruginosa (fold increase in extracellular AK activity)); 0.5 in assay [6] (planktonic, cutoff for positive-scoring molecules 3-fold increase, read-out: AK-based Prestwick Library Screening Results, E. cloacae (fold increase in extracellular AK activity)). The fold induction at 50 µM in assay [7] (planktonic, cutoff for positive-scoring molecules 3-fold increase, read-out: AK-based Prestwick Library Screening Results, E. coli (fold increase in extracellular AK activity)) was determined as 0.5.

For the compound `C[C@@H]1C[C@@H]([C@H](O)CC2CC(=O)NC(=O)C2)C(=O)[C@@H](C)C1` [Cycloheximide], the fold induction at 50 µM in assay [1] ([…], read-out: AK-based Prestwick Library Screening Results, E. faecium (fold increase in extracellular AK activity)) came to 1; in assay [2] ([…], read-out: AK-based Prestwick Library Screening Results, S. aureus (fold increase in extracellular AK activity)), 1.1; in assay [3] ([…], read-out: AK-based Prestwick Library Screening Results, K. pneumoniae (fold increase in extracellular AK activity)), 1; in assay [4] ([…], read-out: AK-based Prestwick Library Screening Results, A. baumannii (fold increase in extracellular AK activity)), 1.2; in assay [5] ([…], read-out: AK-based Prestwick Library Screening Results, P. aeruginosa (fold increase in extracellular AK activity)), 1.1; in assay [6] ([…], read-out: AK-based Prestwick Library Screening Results, E. cloacae (fold increase in extracellular AK activity)) it was 0.9. Also, in assay [7] ([…], read-out: AK-based Prestwick Library Screening Results, E. coli (fold increase in extracellular AK activity)), the fold induction at 50 µM is 1.3.

Take `COc1cc2nc(N(C)CCCNC(=O)C3CCCO3)nc(N)c2cc1OC` (stereo not shown) [Alfuzosin hydrochloride]: the fold induction at 50 µM in assay [1] (setting [8]) stood at 0.9; in assay [2] (setting [9]), 0.3; in assay [3] (setting [10]), 0.4; in assay [4] (setting [11]), 0.4; in assay [5] (setting [12]), 0.4; in assay [6] (setting [13]), 0.4. For the same compound, the fold induction at 50 µM in assay [7] (setting [14]) turned out to be 0.5.

Regarding `COP(=O)(OC)C(O)C(Cl)(Cl)Cl` (stereo not shown) [Trichlorfon], the fold induction at 50 µM in assay [1] (planktonic E. faecium, 384-well, […], read-out: AK-based Prestwick Library Screening Results: E. faecium (increase in extracellular AK activity)) worked out at 0.8; in assay [2] (planktonic S. aureus, 384-well, […], read-out: AK-based Prestwick Library Screening Results: S. aureus (increase in extracellular AK activity)), 1.1; in assay [3] (planktonic K. pneumoniae, 384-well, […], read-out: AK-based Prestwick Library Screening Results: K. pneumoniae (increase in extracellular AK activity)), 1.1; in assay [4] (planktonic A. baumannii, 384-well, […], read-out: AK-based Prestwick Library Screening Results: A. baumannii (increase in extracellular AK activity)) it was 0.9; in assay [5] (planktonic P. aeruginosa, 384-well, […], read-out: AK-based Prestwick Library Screening Results: P. aeruginosa (increase in extracellular AK activity)) it was 1; in assay [6] (planktonic E. cloacae, 384-well, […], read-out: AK-based Prestwick Library Screening Results: E. cloacae (increase in extracellular AK activity)), 1.5. Besides, the fold induction at 50 µM in assay [7] (planktonic E. coli, 384-well, […], read-out: AK-based Prestwick Library Screening Results: E. coli (increase in extracellular AK activity)) came to 1.2.

With `CCCNC(C)C(=O)Nc1c(C)csc1C(=O)OC` (stereo not shown) [Articaine hydrochloride], the fold induction at 50 µM was found to be 1.2 in assay [1] (planktonic E. faecium, positive cutoff 3-fold increase, read-out: AK-based Prestwick library screening result, E. faecium (fold increase in extracellular AK activity)); 1.1 in assay [2] (planktonic S. aureus, positive cutoff 3-fold increase, read-out: AK-based Prestwick library screening result, S. aureus (fold increase in extracellular AK activity)); 1.1 in assay [3] (planktonic K. pneumoniae, positive cutoff 3-fold increase, read-out: AK-based Prestwick library screening result, K. pneumoniae (fold increase in extracellular AK activity)); 1.2 in assay [4] (planktonic A. baumannii, positive cutoff 3-fold increase, read-out: AK-based Prestwick library screening result, A. baumannii (fold increase in extracellular AK activity)); 1 in assay [5] (planktonic P. aeruginosa, positive cutoff 3-fold increase, read-out: AK-based Prestwick library screening result, P. aeruginosa (fold increase in extracellular AK activity)); 1.6 in assay [6] (planktonic E. cloacae, positive cutoff 3-fold increase, read-out: AK-based Prestwick library screening result, E. cloacae (fold increase in extracellular AK activity)). For the same compound, the fold induction at 50 µM in assay [7] (planktonic E. coli, positive cutoff 3-fold increase, read-out: AK-based Prestwick library screening result, E. coli (fold increase in extracellular AK activity)) stood at 1.1.
